Laboratory results published in patent publication US7989469B2, “Certain chemical entities, compositions, and methods” (Cytokinetics, Incorporated, priority 2008, dated 2011).

test system: rabbit skeletal muscle myofibril preparations (approximately 90% fast fibers); experiment: Activation of fast skeletal muscle fibers: enzymatic activity of myofibril preparations (PUMA assay system); assay type: biochemical; parameters: unit not given here; details: detergent treated myofibrils at pCa25%, 500 μM ATP; cells marked †: Mean value
Description: Fast fiber activators were identified by measuring the enzymatic activity of muscle myofibril preparations using the proprietary PUMA™ (see, e.g., U.S. Pat. Nos. 6,410,254, 6,743,599, 7,202,051, and 7,378,254) assay system. Myofibril preparations consisted of rabbit skeletal muscle (approximately 90% fast fibers) that had been treated with a detergen (triton X-100) to remove cellular membranes and then homogenized. This preparation retained all of the sarcomeric components in a native conformation and the enzymatic activity was still regulated by calcium. Compounds were tested using a myofibril suspension and a level of calcium sufficient to increase enzymatic activity of the myofibrils to 25% of their maximal rate (termed pCa25%). Enzymatic activity was tracked via a kinetic assay with a UV absorption readout. Hits were identified as compounds that increased the rate of enzymatic activity by greater than 40% at 40 μM. Myofibril preparations are calcium regulated and were screened at a level of calcium sufficient to produce a 25% increase in enzymatic rate. Detergent treated myofibrils were incubated with 500 μM ATP and 40 μM compound and a kinetic read of UV absorbance performed. Data was normalized to control wells.

Compound | AC1.4 Median
CC(C)(C)n1c(O)nc2ncc(Cl)c(-c3ccc(F)cc3)c21 [1-(tert-butyl)-6-chloro-7-(4-fluorophenyl)imidazo[4,5-b]pyridin-2-ol] | 0.199†
CC(C)C[C@@H](CO)n1c(O)nc2ncc(Cl)c(-c3ccc(F)cc3)c21 [1-[(1S)-2-hydroxy-1-(2-methylpropyl)ethyl]-6-chloro-7-(4-fluorophenyl)imidazo[4,5-b]pyridin-2-ol] | 0.072†
CCC(CC)n1c(O)nc2ncc(Cl)c(-c3ccc(C#N)c(F)c3)c21 [4-(6-chloro-2-hydroxy-1-(pentan-3-yl)-1H-imidazo[4,5-b]pyridin-7-yl)-2-fluorobenzonitrile] | 0.458†

same assay, conditions: detergent treated myofibrils at pCa25%, 500 μM ATP; median value (no †)

Compound | AC1.4 Median
C[C@@H](CCO)n1c(O)nc2ncc(Cl)c(-c3ccc(F)cc3)c21 [1-((1S)-3-hydroxy-1-methylpropyl)-6-chloro-7-(4-fluorophenyl)imidazo[4,5-b]pyridin-2-ol] | 2.309
CCC(CC)n1c(O)nc2ncc(Cl)c(-c3cccc(S(C)(=O)=O)c3)c21 [1-[6-chloro-1-(ethylpropyl)-2-hydroxyimidazo[4,5-b]pyridin-7-yl]-3-(methylsulfonyl)benzene] | 38.633
CCC(CC)n1c(O)nc2ncc(Cl)c(-c3ccc(S(C)(=O)=O)cc3)c21 [1-[6-chloro-1-(ethylpropyl)-2-hydroxyimidazo[4,5-b]pyridin-7-yl]-4-(methylsulfonyl)benzene] | 45.324
CC[C@H](COC)n1c(O)nc2ncc(Cl)c(-c3ccc(F)cc3)c21 [1-[(1R)-1-(methoxymethyl)propyl]-6-chloro-7-(4-fluorophenyl)imidazo[4,5-b]pyridin-2-ol] | 0.249
CC[C@H](COC)n1c(O)nc2ncc(Cl)c(-c3ccc(F)cn3)c21 [1-[(1R)-1-(methoxymethyl)propyl]-6-chloro-7-(5-fluoro(2-pyridyl))imidazo[4,5-b]pyridin-2-ol] | 1.142
CC[C@@H](COC)n1c(O)nc2ncc(Cl)c(-c3ccc(F)cc3)c21 [1-[(1S)-1-(methoxymethyl)propyl]-6-chloro-7-(4-fluorophenyl)imidazo[4,5-b]pyridin-2-ol] | 0.317
CC[C@@H](COC)n1c(O)nc2ncc(Cl)c(-c3ccc(F)cn3)c21 [1-[(1S)-1-(methoxymethyl)propyl]-6-chloro-7-(5-fluoro(2-pyridyl))imidazo[4,5-b]pyridin-2-ol] | 3.771
CCC(CC)n1c(O)nc2ncc(Cl)c(-c3ccccc3C=O)c21 [2-[6-chloro-1-(ethylpropyl)-2-hydroxyimidazo[4,5-b]pyridin-7-yl]benzaldehyde] | 1.689
CCC(CC)n1c(O)nc2ncc(Cl)c(-c3ccccc3C(=O)O)c21 [2-[6-chloro-1-(ethylpropyl)-2-hydroxyimidazo[4,5-b]pyridin-7-yl]benzoic acid] | 30.881
CCC(COP(=O)(O)O)c1nc2nc(O)[nH]c2c(-c2ccc(F)c(F)c2)c1Cl (stereo not shown) [2-[7-(3,4-difluorophenyl)-6-chloro-2-hydroxyimidazo[4,5-b]pyridinyl]butyl dihydrogen phosphate] | 44.713
CC[C@H](c1nc2nc(O)[nH]c2c(-c2ccc(F)cc2)c1Cl)C(CO)CO [2-{(1S)-1-[6-chloro-7-(4-fluorophenyl)-2-hydroxyimidazo[4,5-b]pyridinyl]propyl}propane-1,3-diol] | 4.6812
CCC(CC)n1c(O)nc2ncc(Cl)c(-c3cccc(C=O)c3)c21 [3-[6-chloro-1-(ethylpropyl)-2-hydroxyimidazo[4,5-b]pyridin-7-yl]benzaldehyde] | 1.943
CCC(CC)n1c(O)nc2ncc(Cl)c(-c3ccnc(C#N)c3)c21 [4-(6-chloro-2-hydroxy-1-(pentan-3-yl)-1H-imidazo[4,5-b]pyridin-7-yl)picolinonitrile] | 9.842
